This note sets out measurements from US20260217701A1, “SELECTIVE BET INHIBITORS AND USES THEREOF” (Tay Therapeutics Limited, priority 2022, published 2026).

SMILES strings stand for the structures. Values joined by “and” are separate entries in the source; they are usually repeats but may differ in a detail not shown here. Equal values may be shown once.

Assay [1] can be described thus: UUO study: serum urea levels. The format is in vivo. The conditions noted are these: UUO rats. An excerpt: Tables 30A-30B and FIG. 27A depict serum urea levels in sham rats (black bar), UUO rats treated with vehicle (grey bar), and UUO rats treated with Compound A (white bar).
The subject of assay [2] is hydroxyproline. Briefly: UUO study: hydroxyproline levels. In kind it is in vivo, rats. An excerpt: Table 31 and FIGS. 27B-27C depict hydroxyproline levels in sham rats (black bar in FIG. 27B; square shape in FIG. 27C), UUO rats treated with vehicle (grey bar in FIG. 27B; circle shape in FIG. 27C), and UUO rats treated with Compound A (white bar in FIG. 27B; triangle shape in FIG. 27C).

For assay [3], the system named is lupus. In words: SLE (lupus) model: kidney and spleen weight. In kind it is in vivo, MRL/MpJ-Faslpr mice. The settings on record: Week 19. On the procedure:
Female MRL/MpJ-Faslpr mice (The Jackson Laboratory) were used to assess the efficacy of Compound A in treating lupus. Starting when animals were 10 weeks of age, protein concentration in urine was measured using urine dipsticks.
At the start of the study, each group in the study had two animals that were 9 weeks old, and all others were 10 weeks old. Dosing of all animals with the test compounds began when the older animals were 11 weeks old. […] […] Dosing was at a consistent time each dosing day throughout the study.
Compound A may be formulated as illustrated in Experimental Method A (see Table 2E.). […] A stock solution of Compound A in DMSO (stock solution concentration of Compound A of 40 mg/mL) was prepared and aliquots for weekly preparations were frozen at −20° C. On each preparation day, a stock solution aliquot was thawed and diluted with other vehicle components to the desired concentration. Formulated Compound A and vehicle were at room temperature for dosing.
The study began when the older animals were 11 weeks old, and concluded when the older animals were 19 weeks old. Body weight was recorded once a week, with the exception of two weight measurements taken the first week of the study (when the older animals were 11 weeks old). Proteinuria was measured in the urine of animals with urine dipsticks once a week, starting when the older animals were 10 weeks old. […] Blood samples were taken retro-orbitally at the start of the study to establish a baseline (15 animals, 3 per group), and when the older animals were 16 weeks (all animals) and when animals were 19 weeks (all animals) at the conclusion of the study. Blood urea nitrogen (BUN) was measured in all animals at study termination in blood samples. After blood collection, animals were euthanized, perfused with PBS, and the left kidneys were collected and weighed and fixed in 10% buffered formalin. Left kidneys were then processed to a formalin-fixed, paraffin-embedded (FFPE) block, and histology was analyzed in Periodic Acid-Schiff-stained sections (1 section per slide), using the criteria described in Alperovich et al., Lupus, 16:18-24 (2007). Right kidneys were weighed and snap-frozen at −80° C. Spleens were also collected and weighed. SLE in animals treated with a BET inhibitor and vehicle.

As to `Cn1cc(-c2ccccc2)c(-c2cn(C)c(=O)c3[nH]c(-c4cnn(C(F)(F)F)c4)cc23)cc1=O` [Compound A, 6-methyl-4-(1-methyl-2-oxo-5-phenyl-1,2-dihydropyridin-4-yl)-2-(1-(trifluoromethyl)-1H-pyrazol-4-yl)-1,6-dihydro-7H-pyrrolo[2,3-c]pyridin-7-one], in assay [1] (10 mg/kg), the “Serum urea levels, difference between experimental groups” value is “No significant differences”. Besides, the “Serum Urea (Mean + S.D.)” value in assay [1] (10 mg/kg QD) is on record as 5.67 ± 0.71 mmol/L. Also, in assay [1] (Compound A 10 mg/kg QD, individual animals, 10 mg/kg), the “Serum Urea” value was 5.72 mmol/L and 5.03 mmol/L and 5.64 mmol/L and 6.28 mmol/L and 5.22 mmol/L and 4.77 mmol/L and 6.97 mmol/L and 5.71 mmol/L. Further, the “Final Hydroxyproline Con., Mean” value in assay [2] (UUO rats + Compound A, group mean of 8) was 0.66 μg/mg tissue. For the same compound, the “Final Hydroxyproline Con., Mean ± SEM” value in assay [2] (UUO rats + Compound A, group of 8) is reported as 0.66 ± 0.05 μg/mg tissue. Moreover, the “Final Hydroxyproline Con.” value in assay [2] (UUO rats + Compound A, individual animals) is 0.69 μg/mg tissue and 0.86 μg/mg tissue and 0.63 μg/mg tissue and 0.61 μg/mg tissue (2×) and 0.64 μg/mg tissue and 0.44 μg/mg tissue and 0.80 μg/mg tissue. Moreover, the “Hydroxyproline levels, difference between experimental groups” value in assay [2] (UUO rats, 10 mg/kg) was “No significant differences”. Besides, the “Mean Kidney Weight” value in assay [3] (Compound A 1 mg/kg PO QD) amounted to 245 mg; in assay [3] (Compound A 3 mg/kg PO QD), 245 mg; in assay [3] (Compound A 10 mg/kg PO QD) it was 225 mg. Moreover, the “Mean Spleen Weight” value in assay [3] (Compound A 1 mg/kg PO QD) is 241 mg; in assay [3] (Compound A 3 mg/kg PO QD), 361 mg; in assay [3] (Compound A 10 mg/kg PO QD) it was 170 mg. In assay [3] (Compound A (10 mg/kg) and cyclophosphamide groups), the “Kidney weights relative to controls” value is “slightly decreased kidney weights”. Further, the “Spleen weights relative to vehicle controls” value in assay [3] (Compound A (all tested doses) and cyclophosphamide) is recorded as “decreased spleen weights”.
